# Laboratory results from ChEMBL document CHEMBL1201862, “PubChem BioAssay data set” (2004).
# The source made the active and inactive calls.
# Tests used:
# [1] = CellTiter-Glo luminescence survival assay, SW480 colon tumor line, concentration-response curve, half-maximal inhibitory concentration (AID 1117338); type: functional
# [2] = cytotoxicity toward HCT116 cells – cell-based, CellTiter-Glo luminescence, IC50, dose response (AID 1117332); type: functional; details: HCT-116
# [3] = rise of 2N DNA cells, HeLa – IC50, dose response (AID 1117349); type: functional, cell-based
# [4] = target: T1, Polyadenylate-binding protein 1 (Homo sapiens, UniProt P11940); assay: MLLE binding blockers, Cy5 peptide tracer – biochemical, fluorescence polarization, Cy5-PAM2 peptide, secondary, miRNA deadenylation inhibitor project, dose response (AID 602260); type: functional; details: read-out: IC50_Mean
# T1 sequence (P11940 whole entry): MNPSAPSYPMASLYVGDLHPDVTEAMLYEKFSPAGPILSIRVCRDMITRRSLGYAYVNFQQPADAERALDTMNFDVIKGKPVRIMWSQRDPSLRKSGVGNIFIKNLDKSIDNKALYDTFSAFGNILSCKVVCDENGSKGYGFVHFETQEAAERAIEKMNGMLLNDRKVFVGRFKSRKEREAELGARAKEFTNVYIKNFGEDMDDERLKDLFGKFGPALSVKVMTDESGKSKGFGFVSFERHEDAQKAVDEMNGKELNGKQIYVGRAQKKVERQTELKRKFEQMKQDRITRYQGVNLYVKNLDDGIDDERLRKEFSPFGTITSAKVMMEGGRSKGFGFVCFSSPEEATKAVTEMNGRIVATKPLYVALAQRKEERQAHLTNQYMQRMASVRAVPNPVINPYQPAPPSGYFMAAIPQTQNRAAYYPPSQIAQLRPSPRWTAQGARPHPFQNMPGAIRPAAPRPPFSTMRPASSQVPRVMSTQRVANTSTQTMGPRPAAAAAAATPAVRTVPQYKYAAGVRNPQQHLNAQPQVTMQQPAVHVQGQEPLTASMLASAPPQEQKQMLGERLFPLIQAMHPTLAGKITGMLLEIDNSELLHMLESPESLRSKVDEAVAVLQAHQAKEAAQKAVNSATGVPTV
# [5] = cytotoxicity toward HT-29 cells – cell-based, CellTiter-Glo luminescence, IC50, dose response (AID 1117330); type: functional
# [6] = target: T2, Long-chain-fatty-acid--AMP ligase FadD28 (Mycobacterium tuberculosis, UniProt P9WQ59); assay: Fluorescence polarization aasay to screen for inhibitors that compete for the binding of FadD28 to a bisubstrate Measured in Biochemical System Using Plate Reader - 2147-01_Inhibitor_Dose_CherryPick_Activity.; type: functional, Mycobacterium tuberculosis H37Rv
# T2 sequence (P9WQ59 whole entry): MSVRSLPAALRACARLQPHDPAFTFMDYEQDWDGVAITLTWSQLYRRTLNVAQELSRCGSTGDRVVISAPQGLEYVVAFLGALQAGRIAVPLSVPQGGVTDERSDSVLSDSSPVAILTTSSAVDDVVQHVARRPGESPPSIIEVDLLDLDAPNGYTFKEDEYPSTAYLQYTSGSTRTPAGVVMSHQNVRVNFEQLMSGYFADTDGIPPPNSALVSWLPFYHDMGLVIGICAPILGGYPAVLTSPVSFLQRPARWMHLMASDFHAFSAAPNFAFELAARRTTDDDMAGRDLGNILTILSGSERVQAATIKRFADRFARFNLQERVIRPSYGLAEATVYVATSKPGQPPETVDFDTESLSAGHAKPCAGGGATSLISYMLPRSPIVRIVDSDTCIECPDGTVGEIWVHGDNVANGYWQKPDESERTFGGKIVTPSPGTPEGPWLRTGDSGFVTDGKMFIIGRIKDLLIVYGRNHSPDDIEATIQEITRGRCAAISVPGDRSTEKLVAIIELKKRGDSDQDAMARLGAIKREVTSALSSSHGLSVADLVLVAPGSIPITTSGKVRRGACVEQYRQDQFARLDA
# [7] = target: T1, Polyadenylate-binding protein 1; assay: MLLE domain peptide-binding blockers, IC50 – biochemical, fluorescence polarization, FITC-PAM2 peptide, dose response (AID 602259); type: functional; details: read-out: IC50_Mean
# [8] = SNU-C1 cell viability reduction, dose response, CellTiter-Glo luminescence (AID 1117323); type: functional, cell-based
# [9] = target: T3, Microphthalmia-associated transcription factor (Homo sapiens, UniProt O75030); assay: reducers of TRPM1 reporter luminescence, concentration series – cell-based, SK-MEL-5, cherry-picked, set 3, MITF inhibitor project, dose response (AID 493073); type: functional;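 also: SK-MEL-5 melanoma cells with luciferase driven by the MITF target TRPM1 promoter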
# T3 sequence (O75030 whole entry): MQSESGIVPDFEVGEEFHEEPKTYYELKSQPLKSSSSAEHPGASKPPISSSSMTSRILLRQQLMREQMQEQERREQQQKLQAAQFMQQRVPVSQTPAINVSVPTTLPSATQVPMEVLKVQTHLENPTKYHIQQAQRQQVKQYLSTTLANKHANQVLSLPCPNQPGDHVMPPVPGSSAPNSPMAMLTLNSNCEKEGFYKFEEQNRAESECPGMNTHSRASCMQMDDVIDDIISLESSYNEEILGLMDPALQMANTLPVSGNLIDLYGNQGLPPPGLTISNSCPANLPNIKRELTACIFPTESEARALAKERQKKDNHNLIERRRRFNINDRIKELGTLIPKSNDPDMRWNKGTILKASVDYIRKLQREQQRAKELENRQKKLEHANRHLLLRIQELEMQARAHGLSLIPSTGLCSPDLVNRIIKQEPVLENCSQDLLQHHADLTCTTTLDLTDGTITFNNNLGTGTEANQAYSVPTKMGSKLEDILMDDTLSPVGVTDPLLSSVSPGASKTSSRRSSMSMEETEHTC
# [10] = rise of 4N DNA cells, HeLa – IC50, dose response (AID 1117351); type: functional, cell-based
# [11] = target: T4, Histone-lysine N-methyltransferase NSD2 (Homo sapiens, UniProt O96028); type: biochemical
# T4 sequence (O96028 whole entry): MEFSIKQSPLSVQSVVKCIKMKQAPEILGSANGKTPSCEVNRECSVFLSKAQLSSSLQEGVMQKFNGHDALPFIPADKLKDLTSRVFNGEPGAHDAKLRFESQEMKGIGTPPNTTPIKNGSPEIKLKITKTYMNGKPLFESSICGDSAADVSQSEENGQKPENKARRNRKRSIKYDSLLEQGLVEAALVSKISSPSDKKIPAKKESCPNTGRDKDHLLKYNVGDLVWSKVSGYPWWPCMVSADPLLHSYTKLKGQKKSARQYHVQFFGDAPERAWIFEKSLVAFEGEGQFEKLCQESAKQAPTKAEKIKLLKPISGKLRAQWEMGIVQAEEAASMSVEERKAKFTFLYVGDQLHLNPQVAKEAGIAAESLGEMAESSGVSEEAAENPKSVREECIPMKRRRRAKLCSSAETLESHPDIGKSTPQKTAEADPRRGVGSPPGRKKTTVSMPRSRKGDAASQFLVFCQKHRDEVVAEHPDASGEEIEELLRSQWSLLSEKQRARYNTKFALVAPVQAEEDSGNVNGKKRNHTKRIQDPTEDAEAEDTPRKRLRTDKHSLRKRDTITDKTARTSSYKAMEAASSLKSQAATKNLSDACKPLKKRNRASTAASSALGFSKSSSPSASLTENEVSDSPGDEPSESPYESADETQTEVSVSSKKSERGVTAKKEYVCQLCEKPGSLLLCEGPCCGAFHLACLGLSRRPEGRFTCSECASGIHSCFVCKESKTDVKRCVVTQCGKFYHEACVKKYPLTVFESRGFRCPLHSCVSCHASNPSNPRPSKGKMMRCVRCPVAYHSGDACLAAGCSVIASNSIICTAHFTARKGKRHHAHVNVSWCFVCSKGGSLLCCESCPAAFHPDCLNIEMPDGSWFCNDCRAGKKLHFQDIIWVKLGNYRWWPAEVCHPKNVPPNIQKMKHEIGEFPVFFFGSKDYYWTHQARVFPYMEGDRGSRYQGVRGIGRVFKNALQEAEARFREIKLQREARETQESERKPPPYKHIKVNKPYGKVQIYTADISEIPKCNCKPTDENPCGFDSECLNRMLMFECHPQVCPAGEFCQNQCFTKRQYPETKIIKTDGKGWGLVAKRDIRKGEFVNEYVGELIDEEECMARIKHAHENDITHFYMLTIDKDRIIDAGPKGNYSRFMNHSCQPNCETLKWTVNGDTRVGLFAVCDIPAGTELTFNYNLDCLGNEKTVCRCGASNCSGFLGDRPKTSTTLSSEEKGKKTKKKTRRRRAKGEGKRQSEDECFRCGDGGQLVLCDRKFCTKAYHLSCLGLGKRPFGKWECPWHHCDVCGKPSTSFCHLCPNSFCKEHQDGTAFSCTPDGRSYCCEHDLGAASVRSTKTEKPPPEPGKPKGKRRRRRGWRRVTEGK
# [12] = Reduced DLD-1 viability, concentration-response, CellTiter-Glo luminescence (AID 1117352); type: functional
# [13] = cytotoxicity toward Colo320 cells – cell-based, CellTiter-Glo luminescence, IC50, dose response (AID 1117334); type: functional; details: COLO 320
# [14] = RKO cell viability reduction, dose response, CellTiter-Glo luminescence (AID 1117322); type: functional
# Vero = assay: mammalian cell viability reduction – secondary assay, cytotoxicity control for West Nile virus antiviral project, dose response (AID 1650); type: functional; details: Chlorocebus sabaeus
# [15] = viability of HCT116 lacking mutant beta-catenin – cell-based, human colon tumor, dose response (AID 1045); type: functional;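 also: HCT116 colon tumor cells with beta catenin knocked out; cells exposed to compound for 60 hours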
# [16] = viability of PTEN-deleted HCT116 cells – cell-based, HCT116 PTEN knockout, dose response (AID 1047); type: functional;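 also: HCT116 colon tumor cells with PTEN knocked out; cells exposed to compound for 60 hours before readout; potency for loss of cell viability measured by luminescence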
# [17] = target: Heat shock protein HSP 90-alpha (Homo sapiens, UniProt P07900); assay: Luminescence-based dose response biochemical high throughput screening assay for inhibitors of the Heat Shock Protein 90 (HSP90). [Related pubchem assays: 1831 (Summary AID.), 1846 (Confirmation screen.), 1789 (Primary screen.)]
# [18] = alpha-synuclein stem-loop luciferase translation blockers – H4 neuroglioma cells, luminescence, confirmation (AID 1988); type: functional, cell-based
# [19] = viability loss in Vero cells – cytotoxicity control for Vif-APOBEC3G degradation inhibitor project, dose response (AID 1117358); type: functional; details: Vero
# [20] = luciferase reporter signal suppression in cells – H4 neuroglioma cells, luminescence, dose response (AID 1990); type: functional, cell-based
# [21] = Luminescence Cell-Based Dose Response HTS to Identify Inhibitors of 5'UTR Stem-Loop Driven Prion Protein mRNA Translation in H4 Neuroglioblastoma Cells. [Related pubchem assays: 1827 (Project Summary), 1813 (Primary HTS)]; type: functional
structure (smiles),measurement,setting,value
CC[n+]1c(-c2ccccc2)c2cc(N)ccc2c2ccc(N)cc21 [HOMIDIUM BROMIDE],IC50,[1],> 20 µM (inactive)
same,IC50,[2],4.44 µM (active)
same,IC50,[3],> 10 µM (inactive)
same,IC50,[4],> 66 µM (inactive)
same,IC50,[5],> 20 µM (inactive)
same,AC50,[6],27.4 µM (active)
same,IC50,[7],40.4 µM (inactive)
same,IC50,[8],> 20 µM (inactive)
same,AC50,[9],2.42 µM (active)
same,IC50,[10],> 10 µM (inactive)
same,AC50,[11],0.293 µM (active)
same,IC50,[12],> 20 µM (inactive)
same,IC50,[13],> 20 µM (inactive)
same,IC50,[14],3.35 µM (active)
COc1ccc(-c2cc(-c3ccc(C)cc3)nc(SCc3nnc(-c4ccccc4)o3)c2C#N)cc1OC,CC50,Vero,14.1 µM (active)
same,EC50,[15],4.36 µM (active)
same,EC50,[16],4.41 µM (active)
CC(=O)CSc1nnc(-c2ccc3c(c2)OCO3)o1,IC50,[17],9.39 µM (active)
COc1cc(NC(=O)NCCN2CCN(c3ccc(Cl)cc3)CC2)ccc1C,EC50,[18],> 120 µM (not active)
same,CC50,[19],> 40 µM (active)
same,EC50,[20],20.5 µM (active)
same,EC50,[21],> 120 µM (not active)
CC(C)(C)c1ccc(-c2nnc(SCCC#N)n2C2CCCC2)cc1,CC50,[19],> 40 µM (active)
